Results taken from patent US20020015941A1, “Method for treatment of neurodegenerative diseases” (The General Hospital Corporation, priority 2000, published 2002).
Where two headings read alike, the source gives them in different places.

How the values were obtained:
[1] = tested on: capacitative Ca2+ entry (CCE) in SY5Y cells; format: cell-based, human
[2] = tested on: ICRAC channels in wild-type PS1 CHO cells; assay: ICRAC by whole-cell patch clamp in stable CHO cells; format: cell-based, Chinese hamster; settings: wild-type PS1 CHO cells pretreated with 10 μM SKF96365 for 30 min
[3] = tested on: Aβ42/Aβtotal in CHO cells stably overexpressing human APP; assay: Aβ sandwich ELISA, CHO cells stably overexpressing human APP; format: cell-based, Chinese hamster; settings: CHO-APP, indicated concentrations for 12 hours (FIG. 5C)
[4] = tested on: total Aβ and Aβ42 in D257A-PS1 CHO cells; assay: Aβ generation in CHO cells stably expressing APP and D257A-PS1; format: cell-based, Chinese hamster
[5] = tested on: capacitative calcium entry (CCE) in CHO cells; assay: CCE by ratiometric Ca2+ imaging in CHO cells; format: cell-based, Chinese hamster
[6] = tested on: secreted APP-α in 293 cells stably expressing human APP; assay: Secreted APPs-α by immunoprecipitation (22C11) and blot (6E10); format: cell-based; settings: SKF96365 treatment, 12 hour
[7] = tested on: CHO or 293 cells stably expressing human APP
[8] = tested on: voltage-operated Ca2+ channels; settings: literature; cited from earlier work
[9] = tested on: capacitative calcium entry (CCE); settings: literature; cited from earlier work
[10] = tested on: IP3-elicited release of Ca2+ from internal stores; settings: literature; cited from earlier work
[11] = tested on: CHO and CHO-APP cells; settings: Aβ42 pre-treatment
Method: The Aβ42 peptides were obtained from Bachem and dissolved in PBS at 1 mg/ml directly before use.

For `COc1ccc(CCCOC(Cn2ccnc2)c2ccc(OC)cc2)cc1` (centres unmarked) [SKF96365], which “Ca2+ influx (CCE) after pretreatment” value ([1]; 100 μM SKF96365 1 hr, 100 nM CalyA 20 min, nifedipine 1 μM, ω-conotoxin GVIA 2 μM, prior to induction of CCE) is on record?
Its value is “blocked”.

What about the “ICRAC (peak current density)” value [2] of the same compound?
Its value is “virtually eliminated”.

What about the “Aβ42-promoting effect versus concentration” value [3] of the same compound?
The value was “dose-dependent”.

And the “generation of Aβ42 in D257A-PS1 cells” value ([4]; 50 μM SKF96365)?
The value was “did not restore”.

What about the “generation of total Aβ in D257A-PS1 cells” value ([4]; 50 μM SKF96365) of the same compound?
Its value is “did not restore”.

And the “relative Aβ42 levels as share of total Aβ levels in D257A cells” value ([4]; following treatment with SKF96365 (50 μM))?
The value was “greater than 90%”.

What about the “degree of CCE reduction in D257A-PS1 cells compared to wild-type PS1 cells” value ([5]; 50 μM SKF96365, 12 hrs) of the same compound?
Its value is “much less”.

What about the “secreted APP-α levels” value [6] of the same compound?
Its value is “did not alter”.

And the cell viability [7]?
The cell viability was “did not alter”.

What about the “effect on voltage-operated Ca2+ channels” value [8] of the same compound?
Its value is “minor inhibitory effect”.

For `C=C1[C@@H](C)[C@H]2[C@H](Cc3ccccc3)NC(=O)[C@]23[C@H](OC(C)=O)/C=C/[C@@](C)(O)C(=O)[C@@H](C)C/C=C/[C@H]3[C@@H]1O` [CytoD, Cytochalasin D], which “Ca2+ influx in wild-type PS1 or M146L-PS1 cells” value [1] is on record?
The value was “essentially no effect”.

What about the “effect on CCE” value [9] of the same compound?
Its value is “no effect”.

And the “IP3-elicited release of Ca2+ from internal stores” value [10]?
Its value is “impairs”.

For Calyculin A, which “Ca2+ influx (CCE) after pretreatment” value [1] is on record?
The value was “blocked”.

Which results are given for “Aβ42: 42-amino acid version of amyloid β-peptide, obtained from Bachem”?
CCE response after Aβ42 pre-treatment ([5]; CHO and CHO-APP cells pre-incubated with 20 PM Aβ42 for 3 hours): no detectable effect; cell viability [11]: not affected

Which “Ca2+ influx (CCE) after pretreatment” value [1] does the source give for ω-conotoxin GVIA here?
The value was “virtually no effect”.
